Data on 33 compounds can be found in ChEMBL document CHEMBL4270669 (J Med Chem, 2018).

Each structure is given as a SMILES string. Bounds are passed on as bounds.

Usually Ki stands for a measure of affinity in units of concentration, obtained from inhibition or displacement. Low values mean tighter binding, high ones weaker binding. Usually IC50 stands for the concentration at which inhibition is half-maximal. For orientation: Kd means the equilibrium constant for the complex coming apart.

Assay [1] addresses Serine/threonine-protein kinase mTOR (Homo sapiens, UniProt P42345).
A short description of assay [2]: Inhibition of TORC1 in human A2058 cells assessed as decrease in S6 phosphorylation at Ser235/236 after 1 hr by Western blot analysis. Format: cell-based. To be noted: A2058, 1 h.
Assay [3] is described as follows: Inhibition of TORC2 in human A2058 cells assessed as decrease in PKB/Akt phosphorylation at Ser473 after 1 hr by Western blot analysis. The assay is classed as cell-based. To be noted: A2058, 1 h. (In general: In western blotting, separated proteins are transferred to a membrane and probed.)
Assay [4] has as its target T1, Phosphatidylinositol 4,5-bisphosphate 3-kinase catalytic subunit alpha isoform (Homo sapiens, UniProt P42336).
The target in assay [5] is Phosphatidylinositol 3-kinase catalytic subunit type 3 (Homo sapiens, UniProt Q8NEB9). As to the kind of experiment: Inhibition of human VPS34 (282 to 879 residues) expressed in mammalian expression system by KINOMEscan assay.
Phosphatidylinositol 3-kinase catalytic subunit type 3, sequence (Q8NEB9 whole entry, the tested form may be a part): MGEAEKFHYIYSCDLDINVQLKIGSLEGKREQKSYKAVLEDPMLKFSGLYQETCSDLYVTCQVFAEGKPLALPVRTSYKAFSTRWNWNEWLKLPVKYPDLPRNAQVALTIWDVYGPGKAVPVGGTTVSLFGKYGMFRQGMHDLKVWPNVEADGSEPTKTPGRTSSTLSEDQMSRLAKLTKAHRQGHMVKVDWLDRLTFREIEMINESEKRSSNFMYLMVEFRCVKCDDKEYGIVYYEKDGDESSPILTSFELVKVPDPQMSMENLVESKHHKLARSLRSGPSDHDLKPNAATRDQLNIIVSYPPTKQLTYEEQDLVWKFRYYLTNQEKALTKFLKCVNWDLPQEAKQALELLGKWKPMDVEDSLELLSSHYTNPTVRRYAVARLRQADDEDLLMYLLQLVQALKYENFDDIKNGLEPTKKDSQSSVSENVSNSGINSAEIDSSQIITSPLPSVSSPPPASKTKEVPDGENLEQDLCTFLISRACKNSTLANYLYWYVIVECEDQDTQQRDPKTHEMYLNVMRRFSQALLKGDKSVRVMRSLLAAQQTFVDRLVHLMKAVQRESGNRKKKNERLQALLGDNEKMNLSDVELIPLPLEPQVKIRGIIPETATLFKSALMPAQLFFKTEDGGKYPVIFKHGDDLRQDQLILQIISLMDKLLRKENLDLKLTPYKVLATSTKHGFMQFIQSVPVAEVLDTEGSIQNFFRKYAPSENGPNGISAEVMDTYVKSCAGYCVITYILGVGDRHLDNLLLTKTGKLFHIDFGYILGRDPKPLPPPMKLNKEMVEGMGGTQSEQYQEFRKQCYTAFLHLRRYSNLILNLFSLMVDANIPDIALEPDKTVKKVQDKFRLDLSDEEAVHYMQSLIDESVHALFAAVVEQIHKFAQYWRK
In assay [6] the target is Phosphatidylinositol 4-kinase beta (Homo sapiens, UniProt Q9UBF8).
Phosphatidylinositol 4-kinase beta, sequence (Q9UBF8 whole entry, canonical isoform): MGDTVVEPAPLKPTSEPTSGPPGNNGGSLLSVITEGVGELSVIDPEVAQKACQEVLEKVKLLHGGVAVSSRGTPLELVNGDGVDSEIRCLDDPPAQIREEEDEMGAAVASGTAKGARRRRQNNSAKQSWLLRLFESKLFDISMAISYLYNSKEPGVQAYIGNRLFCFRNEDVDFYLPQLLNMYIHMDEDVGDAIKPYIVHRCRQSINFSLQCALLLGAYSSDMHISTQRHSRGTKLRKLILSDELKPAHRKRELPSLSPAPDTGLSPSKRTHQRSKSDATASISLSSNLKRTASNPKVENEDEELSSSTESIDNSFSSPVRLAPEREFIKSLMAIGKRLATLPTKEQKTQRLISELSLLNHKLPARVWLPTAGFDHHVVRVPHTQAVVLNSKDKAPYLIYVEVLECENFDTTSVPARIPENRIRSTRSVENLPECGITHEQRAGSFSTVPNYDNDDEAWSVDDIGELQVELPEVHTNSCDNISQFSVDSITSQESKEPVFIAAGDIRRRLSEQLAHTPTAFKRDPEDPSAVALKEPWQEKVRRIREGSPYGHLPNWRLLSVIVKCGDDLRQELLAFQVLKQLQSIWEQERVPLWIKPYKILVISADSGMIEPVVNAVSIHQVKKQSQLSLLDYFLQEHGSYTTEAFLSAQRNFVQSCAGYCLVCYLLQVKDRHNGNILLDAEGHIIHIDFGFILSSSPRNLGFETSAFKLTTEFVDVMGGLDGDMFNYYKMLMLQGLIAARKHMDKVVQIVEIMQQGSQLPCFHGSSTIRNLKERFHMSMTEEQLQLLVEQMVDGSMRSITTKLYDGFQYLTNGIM
Description: Inhibition of human PI4Kbeta (1 to 828 residues) expressed in mammalian expression system by KINOMEscan assay
For assay [7], the target named is T2, Phosphatidylinositol 4,5-bisphosphate 3-kinase catalytic subunit delta isoform (Homo sapiens, UniProt O00329).
T2 sequence (O00329 whole entry): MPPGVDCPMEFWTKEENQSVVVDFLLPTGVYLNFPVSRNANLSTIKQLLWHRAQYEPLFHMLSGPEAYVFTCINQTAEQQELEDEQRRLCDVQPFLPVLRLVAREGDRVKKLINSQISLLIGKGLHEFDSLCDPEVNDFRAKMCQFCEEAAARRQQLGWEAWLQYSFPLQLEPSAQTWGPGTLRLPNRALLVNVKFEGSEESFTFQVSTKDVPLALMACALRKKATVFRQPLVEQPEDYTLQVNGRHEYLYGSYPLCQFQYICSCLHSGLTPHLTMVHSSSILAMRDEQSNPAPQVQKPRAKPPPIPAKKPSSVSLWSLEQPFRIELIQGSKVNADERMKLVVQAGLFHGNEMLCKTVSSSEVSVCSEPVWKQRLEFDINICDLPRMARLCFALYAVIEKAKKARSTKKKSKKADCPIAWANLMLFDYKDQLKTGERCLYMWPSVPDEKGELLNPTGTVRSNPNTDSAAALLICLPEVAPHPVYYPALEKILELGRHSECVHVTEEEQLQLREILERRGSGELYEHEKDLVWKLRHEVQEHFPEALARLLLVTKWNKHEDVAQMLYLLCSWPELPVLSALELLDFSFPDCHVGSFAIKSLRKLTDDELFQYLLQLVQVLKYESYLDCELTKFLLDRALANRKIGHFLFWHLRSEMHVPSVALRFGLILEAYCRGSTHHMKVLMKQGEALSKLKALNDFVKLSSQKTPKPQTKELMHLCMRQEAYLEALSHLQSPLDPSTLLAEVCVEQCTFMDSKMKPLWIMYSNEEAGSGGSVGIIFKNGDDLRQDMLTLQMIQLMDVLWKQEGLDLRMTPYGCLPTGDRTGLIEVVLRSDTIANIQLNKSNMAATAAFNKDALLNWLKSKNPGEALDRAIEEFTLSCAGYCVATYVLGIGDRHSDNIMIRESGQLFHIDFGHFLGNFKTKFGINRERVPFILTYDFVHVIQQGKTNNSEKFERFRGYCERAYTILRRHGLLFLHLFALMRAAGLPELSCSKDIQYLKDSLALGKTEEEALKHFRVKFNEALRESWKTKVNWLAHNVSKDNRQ
Description: Inhibition of human PI3Kdelta (108 to 1044 residues) expressed in mammalian expression system by KINOMEscan assay

For assay [8], the target named is T1, Phosphatidylinositol 4,5-bisphosphate 3-kinase catalytic subunit alpha isoform. This is another data set of the same source.
Description: Inhibition of human PI3Kalpha (108 to 1068 residues) expressed in mammalian expression system by KINOMEscan assay
Assay [9] has as its target Phosphatidylinositol 4,5-bisphosphate 3-kinase catalytic subunit beta isoform (Homo sapiens, UniProt P42338).
Description: Inhibition of human PI3Kbeta (118 to 1070 residues) expressed in mammalian expression system by KINOMEscan assay
In assay [10] the target is Phosphatidylinositol 4,5-bisphosphate 3-kinase catalytic subunit gamma isoform (Homo sapiens, UniProt P48736).
Phosphatidylinositol 4,5-bisphosphate 3-kinase catalytic subunit gamma isoform, sequence (P48736 whole entry, canonical isoform): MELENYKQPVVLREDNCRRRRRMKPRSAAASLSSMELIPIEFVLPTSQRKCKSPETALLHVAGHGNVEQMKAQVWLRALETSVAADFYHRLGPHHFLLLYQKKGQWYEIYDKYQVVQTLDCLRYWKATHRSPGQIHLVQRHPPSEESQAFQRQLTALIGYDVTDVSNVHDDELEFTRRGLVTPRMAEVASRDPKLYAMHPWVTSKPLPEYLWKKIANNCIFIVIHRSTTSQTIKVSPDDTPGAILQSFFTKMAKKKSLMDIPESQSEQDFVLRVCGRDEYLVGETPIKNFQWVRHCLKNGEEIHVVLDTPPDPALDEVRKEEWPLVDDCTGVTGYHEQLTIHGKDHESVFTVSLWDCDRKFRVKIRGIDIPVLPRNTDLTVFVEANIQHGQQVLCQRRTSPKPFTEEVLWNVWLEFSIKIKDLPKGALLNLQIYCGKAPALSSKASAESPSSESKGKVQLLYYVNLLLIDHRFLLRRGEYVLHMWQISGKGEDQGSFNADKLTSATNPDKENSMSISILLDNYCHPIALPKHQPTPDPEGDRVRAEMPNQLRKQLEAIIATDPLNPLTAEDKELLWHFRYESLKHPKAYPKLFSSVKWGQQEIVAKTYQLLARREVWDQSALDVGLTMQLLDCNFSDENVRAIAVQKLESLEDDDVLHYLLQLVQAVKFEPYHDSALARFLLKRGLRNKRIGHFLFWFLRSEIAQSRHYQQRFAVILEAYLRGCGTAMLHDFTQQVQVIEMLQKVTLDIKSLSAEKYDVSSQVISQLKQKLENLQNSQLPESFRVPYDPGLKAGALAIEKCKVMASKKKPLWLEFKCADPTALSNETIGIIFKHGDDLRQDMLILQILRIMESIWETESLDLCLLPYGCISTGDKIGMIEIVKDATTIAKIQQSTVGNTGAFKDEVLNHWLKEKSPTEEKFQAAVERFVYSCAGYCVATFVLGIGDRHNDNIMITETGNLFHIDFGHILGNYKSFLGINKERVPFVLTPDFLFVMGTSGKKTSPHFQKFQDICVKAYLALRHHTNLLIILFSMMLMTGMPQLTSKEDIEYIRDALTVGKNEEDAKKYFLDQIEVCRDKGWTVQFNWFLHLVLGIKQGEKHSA
Description: Inhibition of human PI3Kgamma (144 to 1102 residues) expressed in mammalian expression system by KINOMEscan assay

T1 sequence (P42336 whole entry, the tested form may be a part, canonical isoform): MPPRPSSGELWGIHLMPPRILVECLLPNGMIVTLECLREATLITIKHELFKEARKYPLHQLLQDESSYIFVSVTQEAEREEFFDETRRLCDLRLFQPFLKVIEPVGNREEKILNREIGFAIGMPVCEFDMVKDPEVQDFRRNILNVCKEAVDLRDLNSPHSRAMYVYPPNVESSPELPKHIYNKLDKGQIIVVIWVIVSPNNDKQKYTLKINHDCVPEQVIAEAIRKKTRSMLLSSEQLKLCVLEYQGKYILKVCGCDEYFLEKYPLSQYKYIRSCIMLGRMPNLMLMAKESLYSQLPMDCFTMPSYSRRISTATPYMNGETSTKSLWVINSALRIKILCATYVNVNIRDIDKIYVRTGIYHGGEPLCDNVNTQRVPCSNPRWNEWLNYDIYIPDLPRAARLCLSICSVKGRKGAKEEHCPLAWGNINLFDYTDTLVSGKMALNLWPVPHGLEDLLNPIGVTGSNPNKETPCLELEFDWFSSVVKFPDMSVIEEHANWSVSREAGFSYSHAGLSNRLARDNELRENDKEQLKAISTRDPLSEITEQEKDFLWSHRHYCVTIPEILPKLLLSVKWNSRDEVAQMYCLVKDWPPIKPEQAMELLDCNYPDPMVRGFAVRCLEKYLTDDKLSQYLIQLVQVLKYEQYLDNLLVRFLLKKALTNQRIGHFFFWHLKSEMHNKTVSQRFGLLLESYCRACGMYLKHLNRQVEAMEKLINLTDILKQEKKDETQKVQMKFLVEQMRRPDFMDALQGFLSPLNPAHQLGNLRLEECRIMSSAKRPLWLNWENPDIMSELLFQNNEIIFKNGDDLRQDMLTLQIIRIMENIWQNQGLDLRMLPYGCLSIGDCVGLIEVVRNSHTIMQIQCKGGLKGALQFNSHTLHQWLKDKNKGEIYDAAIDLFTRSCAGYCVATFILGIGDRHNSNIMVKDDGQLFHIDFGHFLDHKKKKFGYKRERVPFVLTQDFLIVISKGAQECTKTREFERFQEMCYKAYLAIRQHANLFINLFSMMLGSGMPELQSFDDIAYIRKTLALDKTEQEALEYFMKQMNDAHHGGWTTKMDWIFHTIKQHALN
Phosphatidylinositol 4,5-bisphosphate 3-kinase catalytic subunit beta isoform, sequence (P42338 whole entry, canonical isoform): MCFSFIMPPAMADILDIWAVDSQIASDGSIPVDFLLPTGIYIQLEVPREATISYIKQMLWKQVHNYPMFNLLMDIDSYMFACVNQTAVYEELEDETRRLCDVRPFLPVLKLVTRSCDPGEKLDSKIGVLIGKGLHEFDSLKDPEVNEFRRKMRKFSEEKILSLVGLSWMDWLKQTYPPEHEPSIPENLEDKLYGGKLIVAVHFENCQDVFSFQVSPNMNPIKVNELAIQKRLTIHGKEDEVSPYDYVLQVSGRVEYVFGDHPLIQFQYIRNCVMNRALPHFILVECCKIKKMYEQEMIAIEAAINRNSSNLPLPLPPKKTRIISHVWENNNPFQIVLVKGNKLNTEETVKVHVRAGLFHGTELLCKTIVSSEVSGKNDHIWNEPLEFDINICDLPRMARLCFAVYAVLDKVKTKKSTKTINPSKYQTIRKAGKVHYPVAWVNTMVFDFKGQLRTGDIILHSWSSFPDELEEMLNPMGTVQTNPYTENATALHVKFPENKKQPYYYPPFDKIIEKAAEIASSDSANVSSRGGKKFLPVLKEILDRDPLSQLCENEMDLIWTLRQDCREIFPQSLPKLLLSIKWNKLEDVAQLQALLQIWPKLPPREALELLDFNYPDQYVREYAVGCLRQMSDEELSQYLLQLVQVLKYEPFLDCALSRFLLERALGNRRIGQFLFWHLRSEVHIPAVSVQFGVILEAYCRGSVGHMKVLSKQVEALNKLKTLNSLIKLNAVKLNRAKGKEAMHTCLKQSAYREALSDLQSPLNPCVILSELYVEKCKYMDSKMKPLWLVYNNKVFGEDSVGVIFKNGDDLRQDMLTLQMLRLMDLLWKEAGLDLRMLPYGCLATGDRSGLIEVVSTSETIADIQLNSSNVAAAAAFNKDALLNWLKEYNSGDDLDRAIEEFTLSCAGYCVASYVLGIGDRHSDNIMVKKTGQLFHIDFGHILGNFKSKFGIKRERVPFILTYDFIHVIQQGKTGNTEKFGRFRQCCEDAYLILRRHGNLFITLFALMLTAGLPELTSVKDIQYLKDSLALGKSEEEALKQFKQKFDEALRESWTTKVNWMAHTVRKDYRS

Regarding `Nc1cc(C(F)F)c(-c2nc(N3CCOCC3)nc(N3C4CCC3COC4)n2)cn1`, the Ki in assay [1] was 11.2 nM; in assay [4], 25.8 nM. The IC50 in [2] worked out at 113 nM; in [3], 156 nM.
Turning to `CC1(C)CN(c2nc(-c3cnc(N)cc3C(F)F)nc(N3CCOC(C)(C)C3)n2)CCO1`, the Ki was found to be 73.4 nM in assay [1] and 8790 nM in [4]. The IC50 stood at 2330 nM in assay [2] and 4820 nM in assay [3].
In the same order, the values of `CC[C@@H]1COCCN1c1nc(-c2cnc(N)cc2C(F)F)nc(N2CCOC[C@H]2CC)n1` are 13.6 nM, 32.2 nM, 209 nM and 354 nM.
As to `Nc1cc(C(F)F)c(-c2nc(N3C[C@@H]4C[C@H]3CO4)nc(N3C[C@@H]4C[C@H]3CO4)n2)cn1`, the Ki in [1] was 18.5 nM; in [4], above 20000 nM. The IC50 in assay [2] stood at 1560 nM; in [3], 4040 nM.
With `Nc1cc(C(F)(F)F)c(-c2cc(N3C4CCC3COC4)nc(N3C4CCC3COC4)n2)cn1`, the inhibition constant (Ki) in [1] worked out at 30 nM; in assay [4] it was 2190 nM. Also, the IC50 is 318 nM in [2] and 520 nM in assay [3].
Take `C[C@@H]1COC[C@@H](C)N1c1nc(-c2cnc(N)cc2C(F)F)nc(N2[C@H](C)COC[C@H]2C)n1`: the Ki was 79.9 nM in assay [1] and above 20000 nM in assay [4]. Also, the figures for the IC50 in [2] and in [3] were 1190 nM and 3570 nM, respectively.
For `C[C@@H]1CN(c2nc(-c3cnc(N)cc3C(F)F)nc(N3C[C@@H](C)O[C@@H](C)C3)n2)C[C@H](C)O1`, the Ki in assay [1] turned out to be 650 nM; in assay [4], 15400 nM. For the same compound, the IC50 in [2] came out at 10400 nM; in assay [3] it was 20900 nM.
As to `Nc1cc(C(F)F)c(-c2cc(N3C4CCC3COC4)nc(N3C4CCC3COC4)n2)cn1`, the Ki in assay [1] came to 12 nM; in assay [4], 2090 nM. Besides, the IC50 in assay [2] came out at 164 nM; in assay [3], 287 nM.
For `Nc1cc(C(F)F)c(-c2nc(N3CC4CCC(C3)O4)nc(N3CC4CCC(C3)O4)n2)cn1`, the Ki was 13.9 nM in [1] and 1300 nM in assay [4]. In addition, the IC50 in [2] is 301 nM; in assay [3], 630 nM.
On to `C[C@@H]1COCCN1c1nc(-c2cnc(N)cc2C(F)F)nc(N2CCOCC2)n1`, for which the Ki in assay [1] turned out to be 9.6 nM; in assay [4], 20.8 nM. The IC50 was 138 nM in assay [2] and 147 nM in assay [3].
As to `Nc1cc(C(F)F)c(-c2nc(N3C4COCC3COC4)nc(N3C4COCC3COC4)n2)cn1`, the Ki turned out to be 31 nM in assay [1] and 2380 nM in assay [4]. The IC50 was 275 nM in assay [2] and 357 nM in [3].
Take `Nc1cc(C(F)(F)F)c(-c2nc(N3CCOCC3)cc(N3CCOCC3)n2)cn1`: the Ki in [1] was found to be 911 nM; in assay [4] it was 41 nM. The IC50 in [2] is 926 nM; in [3], 729 nM.
As for `Nc1cc(C(F)(F)F)c(-c2nc(N3C4CCC3COC4)cc(N3C4CCC3COC4)n2)cn1`, the Ki in assay [1] came to 435 nM; in assay [4], 5670 nM. For the same compound, the IC50 in [2] came to 1940 nM; in assay [3], 3320 nM.
`Nc1cc(C(F)F)c(-c2nc(N3C[C@H]4C[C@@H]3CO4)nc(N3C[C@H]4C[C@@H]3CO4)n2)cn1`: the Ki in [1] is 308 nM; in [4] it was 4630 nM. Besides, the IC50 in [2] came out at 12600 nM; in [3], 17700 nM.
Taken in the same sequence, the figures for `COC(OC)c1cc(N)ncc1-c1nc(N2CCOCC2)nc(N2CCOCC2)n1` were 474 nM, 129 nM, 2110 nM and 1200 nM.
As for `Nc1cc(CF)c(-c2nc(N3CCOCC3)nc(N3CCOCC3)n2)cn1`, the Ki in assay [1] was 54.3 nM; in [4] it was 68.6 nM. The IC50 in assay [2] worked out at 218 nM; in assay [3], 397 nM.
Take `Nc1cc(C(F)F)c(-c2nc(N3CCOCC3)nc(N3CCOCC3)n2)cn1`: the results for the IC50 in [2] and in [3] were 118 nM and 102 nM, respectively.
In turn, `CC(C)n1nc(-c2ccc3oc(N)nc3c2)c2c(N)ncnc21` [SAPANISERTIB] displayed a Kd in assay [5] of 8200 nM.
Regarding `Nc1cc(C(F)F)c(-c2nc(N3CCOCC34CCC4)nc(N3CCOCC34CCC4)n2)cn1`, the results for the Ki in [1] and in assay [4] were 32.8 nM and 632 nM, respectively. For the same compound, the IC50 was 526 nM in assay [2] and 942 nM in assay [3].
As for `COc1cc(N)ncc1-c1nc(N2CCOCC2)nc(N2CCOCC2)n1`, the Ki in [1] is 483 nM; in assay [4], 693 nM. The values for the IC50 in assay [2] and in [3] were 1920 nM and 1850 nM, respectively.
In the same order, the values of `C[C@H]1COC[C@H](C)N1c1nc(-c2cnc(N)cc2C(F)F)nc(N2[C@@H](C)COC[C@@H]2C)n1` are 21.1 nM, 64 nM, 294 nM and 379 nM.
Regarding `Nc1cc(C(F)F)c(-c2nc(N3CCOCC3)nc(N3CC4CCC(C3)O4)n2)cn1`, the Ki in assay [1] turned out to be 3.4 nM; in [4], 23.7 nM. Besides, the IC50 amounted to 112 nM in assay [2] and 144 nM in assay [3].
In the same order, the values of `C[C@@H]1COC[C@H](C)N1c1nc(-c2cnc(N)cc2C(F)F)nc(N2[C@H](C)COC[C@@H]2C)n1` are 3.5 nM, 141 nM, 160 nM and 252 nM.
Take `Nc1cc(CO)c(-c2nc(N3CCOCC3)nc(N3CCOCC3)n2)cn1`: the Ki in assay [1] was 74.5 nM; in assay [4] it was 81.3 nM. The IC50 was 528 nM in assay [2] and 341 nM in assay [3].
In the same order, the values of `Nc1cc(C(F)F)c(-c2nc(N3C4COCC3C4)nc(N3C4COCC3C4)n2)cn1` are 551 nM, above 20000 nM, 5770 nM and 17900 nM.
For `CO[C@H]1CC[C@H](N2C(=O)CNc3ncc(-c4ccc(C(C)(C)O)nc4)nc32)CC1` [ONATASERTIB], the Kd in [6] turned out to be 39 nM; in assay [5], 2500 nM.
Take `Nc1cc(C(F)F)c(-c2nc(N3CCOCC3)cc(N3CCOCC3)n2)cn1`: the Ki in assay [1] is 42 nM; in assay [4] it was 29 nM. The IC50 stood at 256 nM in assay [2] and 243 nM in assay [3].
On to `Nc1cc(C(F)F)c(-c2nc(N3C4CCCC3COC4)nc(N3C4CCCC3COC4)n2)cn1`, for which the Ki was 60.2 nM in assay [1] and above 20000 nM in [4]. Besides, the IC50 came out at 1300 nM in assay [2] and 1210 nM in [3].
`Nc1cc(C(F)F)c(-c2cc(N3CCOCC3)nc(N3CCOCC3)n2)cn1`: the Ki in assay [1] worked out at 35 nM; in [4] it was 18 nM. Further, the figures for the IC50 in assay [2] and in assay [3] were 184 nM and 207 nM, respectively.
Taken in the same sequence, the figures for `C[C@@H]1COCCN1c1nc(-c2cnc(N)cc2C(F)F)nc(N2CCOC[C@H]2C)n1` were 12.6 nM, 633 nM, 310 nM and 364 nM.
In the case of `CNC(=O)c1cccc(-c2ccc3c(N4CCOC[C@@H]4C)nc(N4CCOC[C@@H]4C)nc3n2)c1` [VISTUSERTIB], the Kd was 1500 nM in assay [7]; above 30000 nM in assay [6]; 33 nM in [8]; 3300 nM in assay [9]; 8400 nM in [10]; 23000 nM in [5].
Regarding `Nc1cc(C(F)F)c(-c2nc(N3C4CCC3COC4)cc(N3C4CCC3COC4)n2)cn1`, the Ki in assay [1] was found to be 60 nM; in assay [4], 2230 nM. The IC50 worked out at 395 nM in assay [2] and 650 nM in assay [3].
`Nc1cc(C(F)(F)F)c(-c2cc(N3CCOCC3)nc(N3CCOCC3)n2)cn1` [BUPARLISIB]: the IC50 came to 553 nM in assay [2] and 416 nM in [3].
